Values quoted from earlier work, collected in patent US6831041B2, “Oil suspension concentrates based on a cyclohexenone oxime ether lithium salt and the use thereof as plant protection agents” (BASF Aktiengesellschaft, priority 2000, dated 2004).

Conditions: formulated together with calcium glyphosate as oil suspension concentrate

stability in formulation (in words): insufficient stability
Compound: CCCC(CC(C)=NOCC=CCl)C1=C(O)CC(C2CCCOC2)CC1=O (stereo not shown) [2-{1-[2-(3-chloroallyloxy)iminopropyl]-butyl}-3-hydroxy-5-(tetrahydropyran-3-yl)cyclohex-2-enone]
